Measured values reported in the NIST ThermoML archive (doi:10.1016/j.fluid.2015.07.004).

Assays:
[1] = osmotic coefficient (dimensionless); mn = molality of the nth substance listed, in mol/kg; conditions: 100 kPa, Liquid, boiling point elevation
[2] = mn = molality of the nth substance listed, in mol/kg; conditions: 298 K, 100 kPa, Liquid, Vibrating tube method

CN(C)CC(=O)O [(Dimethylamino)acetic acid] + O
[1]
Conditions | osmotic coefficient
310.15 K, m1 = 0.0986 | 1.069
310.15 K, m1 = 0.2005 | 1.035
310.15 K, m1 = 0.4001 | 1.072
310.15 K, m1 = 0.8024 | 1.076
310.15 K, m1 = 1.003 | 1.126
310.15 K, m1 = 1.193 | 1.141
310.15 K, m1 = 1.401 | 1.147
310.15 K, m1 = 1.585 | 1.154
310.15 K, m1 = 1.797 | 1.169
310.15 K, m1 = 1.992 | 1.206
323.15 K, m1 = 0.2056 | 0.981
323.15 K, m1 = 0.2889 | 0.989
323.15 K, m1 = 0.4998 | 1.008
323.15 K, m1 = 1.015 | 1.021
323.15 K, m1 = 1.5 | 1.114

[2]
Conditions | mass density [kg/m3]
m1 = 0.4001 | 1005.64
m1 = 1.003 | 1016.88
m1 = 1.401 | 1024.01
m1 = 1.992 | 1033.69

NC(=O)NCCC[C@H](N)C(=O)O [N5-aminocarbonyl-L-ornithine] + O
osmotic coefficient, [1]
Conditions | m1 = 0.1011 | m1 = 0.1989 | m1 = 0.2016 | m1 = 0.3942 | m1 = 0.402 | m1 = 0.4915 | m1 = 0.6001 | m1 = 0.6892
310.15 K | 1.011 | 1.003 | – | 0.9986 | – | 0.9973 | – | 1.002
323.15 K | – | – | 1.007 | – | 1.001 | – | 0.9931 | –

[2]
Conditions | mass density [kg/m3]
m1 = 0.1989 | 1008.22
m1 = 0.3842 | 1018.59
m1 = 0.6007 | 1029

C[N+](C)(C)[O-] [trimethylamine oxide] + O
[1]
Conditions | osmotic coefficient
310.15 K, m1 = 0.1988 | 0.9879
310.15 K, m1 = 0.406 | 1.034
310.15 K, m1 = 0.62 | 1.062
310.15 K, m1 = 0.7971 | 1.152
310.15 K, m1 = 0.9921 | 1.133
310.15 K, m1 = 1.199 | 1.15
310.15 K, m1 = 1.392 | 1.192
310.15 K, m1 = 1.59 | 1.31
323.15 K, m1 = 0.5008 | 1.076
323.15 K, m1 = 1.015 | 1.171
323.15 K, m1 = 1.5 | 1.27

[2]
Conditions | mass density [kg/m3]
m1 = 0.406 | 998.235
m1 = 0.7971 | 999.133
m1 = 1.199 | 1000.21
m1 = 1.59 | 1001.54
m1 = 2.002 | 1002.01
m1 = 2.445 | 1003.03

OC[C@H]1O[C@H](O[C@H]2O[C@H](CO)[C@@H](O)[C@H](O)[C@H]2O)[C@H](O)[C@@H](O)[C@@H]1O [α-trehalose] + O
[1], 310.15 K
Conditions | osmotic coefficient
m1 = 0.0499 | 1.031
m1 = 0.0998 | 1.036
m1 = 0.1997 | 1.02
m1 = 0.2995 | 0.999
m1 = 0.3989 | 1.01
m1 = 0.4992 | 1.022
m1 = 0.5995 | 0.9904
m1 = 0.6932 | 1.019
m1 = 1.469 | 1.063
m1 = 1.982 | 1.08

[2]
Conditions | mass density [kg/m3]
m1 = 0.1997 | 1022.61
m1 = 0.3989 | 1046.2
m1 = 0.5995 | 1068.34
m1 = 0.7914 | 1087.59
